For 23 compounds, T/C results are on record in PubChem BioAssay AID330 (DTP/NCI, 2004).

Each structure is given as a SMILES string. Several values for one entry are separate records, joined by “and”; a condition that tells them apart may be missing. Equal values may be shown once. Inconclusive results and toxic doses are left out.

The test system of the assay is P388 leukemia ip, CD2F1 mice, survival T/C. The assay is described as follows: NCI In Vivo Anticancer Drug Screen. Data for tumor model P388 Leukemia (intraperitoneal) in CD2F1 (CDF1) mice. As to conditions: endpoint: median survival time, higher = longer survival. In a few lines:
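Mice carrying the transplanted tumor received test compound or vehicle. Survival was recorded in each group, and the value is the treated-group measurement divided by that of the vehicle-treated control group.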

Where [1] appears, read: dose: 60.0 mg/kg/injection, schedule: Q01DX005 (ip), vehicle: saline with Tween-80.
Setting [2] is: dose: 120.0 mg/kg/injection, schedule: Q01DX005 (ip), vehicle: saline with Tween-80.
Where [3] appears, read: dose: 240.0 mg/kg/injection, schedule: Q01DX005 (ip), vehicle: saline with Tween-80.
Where [4] appears, read: dose: 50.0 mg/kg/injection, schedule: Q01DX005 (ip), vehicle: saline.
The mark [5] stands for this setting: dose: 100.0 mg/kg/injection, schedule: Q01DX005 (ip), vehicle: saline.
Where [6] appears, read: dose: 200.0 mg/kg/injection, schedule: Q01DX005 (ip), vehicle: saline.
The mark [7] stands for this setting: dose: 100.0 mg/kg/injection, schedule: Q01DX001 (ip), vehicle: saline with Tween-80.
The mark [8] stands for this setting: dose: 12.5 mg/kg/injection, schedule: Q01DX005 (ip), vehicle: Klucel (hydroxypropylcellulose) (HPC).
Setting [9] is: dose: 25.0 mg/kg/injection, schedule: Q01DX005 (ip), vehicle: Klucel (hydroxypropylcellulose) (HPC).
Setting [10] is: dose: 50.0 mg/kg/injection, schedule: Q01DX005 (ip), vehicle: Klucel (hydroxypropylcellulose) (HPC).
[11] abbreviates: dose: 100.0 mg/kg/injection, schedule: Q01DX005 (ip), vehicle: Klucel (hydroxypropylcellulose) (HPC).
Where [12] appears, read: dose: 200.0 mg/kg/injection, schedule: Q01DX005 (ip), vehicle: Klucel (hydroxypropylcellulose) (HPC).
Where [13] appears, read: dose: 60.0 mg/kg/injection, schedule: Q01DX005 (ip), vehicle: Klucel (hydroxypropylcellulose) (HPC).
The mark [14] stands for this setting: dose: 15.0 mg/kg/injection, schedule: Q01DX005 (ip), vehicle: saline with Tween-80.
[15] abbreviates: dose: 30.0 mg/kg/injection, schedule: Q01DX005 (ip), vehicle: saline with Tween-80.

In the case of `O=c1ncc(F)cn1C1OC(CO)C(O)C1O` (stereo not given), the T/C (dose: 1.5 mg/kg/injection, schedule: Q01DX009 (ip), vehicle: Klucel (hydroxypropylcellulose) (HPC)) is 106 % of control; the T/C (dose: 3.0 mg/kg/injection, schedule: Q01DX009 (ip), vehicle: Klucel (hydroxypropylcellulose) (HPC)) was 87 % of control; the T/C (dose: 6.0 mg/kg/injection, schedule: Q01DX009 (ip), vehicle: Klucel (hydroxypropylcellulose) (HPC)) is 86 % of control.
Consider `CNc1nc(N)nc(N)c1N1CCN(c2ccc(C(=O)NC(CCCC(=O)O)C(=O)O)cc2)CC1` (stereo not given), for which the T/C was 99 % of control under setting [1], 100 % of control under setting [2] and 95 % of control under setting [3].
On to `Cn1c2ccccc2c(=O)c2cc(NC(=O)CCCCC(=O)Nc3ccc4c(c3)c(=O)c3ccccc3n4C)ccc21`, for which the T/C runs as follows: under setting [1], 101 % of control; under setting [2], 107 % of control; under setting [3], 101 % of control.
Turning to `NC(N)=NCCC(Cl)C(=O)O` (stereo not given), the T/C by setting is: under setting [4], 101 % of control; under setting [5], 102 % of control; under setting [6], 97 % of control.
In the case of `O=C(Oc1ccccc1)N1CCCCC1`, the T/C (dose: 12.5 mg/kg/injection, schedule: Q01DX001 (ip), vehicle: saline with Tween-80) is 95 % of control; the T/C (dose: 25.0 mg/kg/injection, schedule: Q01DX001 (ip), vehicle: saline with Tween-80) was 99 % of control; the T/C (dose: 50.0 mg/kg/injection, schedule: Q01DX001 (ip), vehicle: saline with Tween-80) was 106 % of control; the T/C under setting [7] was 104 % of control.
With `C1=C[N]2c3c4c(ccc3=C1)=CC=C[N]4[Ga]2[c]1ccccc1`, the T/C is 103 % of control (dose: 6.25 mg/kg/injection, schedule: Q01DX009 (ip), vehicle: Klucel (hydroxypropylcellulose) (HPC)); 106 % of control (dose: 12.5 mg/kg/injection, schedule: Q01DX009 (ip), vehicle: Klucel (hydroxypropylcellulose) (HPC)); 118 % of control (dose: 25.0 mg/kg/injection, schedule: Q01DX009 (ip), vehicle: Klucel (hydroxypropylcellulose) (HPC)).
`Cc1cc(C)n2[nH]c(=O)cc2n1`: the T/C reads like this: (dose: 25.0 mg/kg/injection, schedule: Q01DX009 (ip), vehicle: suspension in saline) 99 % of control; (dose: 50.0 mg/kg/injection, schedule: Q01DX009 (ip), vehicle: suspension in saline) 97 % of control; (dose: 100.0 mg/kg/injection, schedule: Q01DX009 (ip), vehicle: suspension in saline) 97 % of control; (dose: 200.0 mg/kg/injection, schedule: Q01DX009 (ip), vehicle: suspension in saline) 98 % of control.
Regarding `C=CC(=O)OCC(C)(C)C`, the T/C by setting is: under setting [4], 99 % of control; under setting [5], 98 % of control; under setting [6], 116 % of control.
As for `O=c1c2ccccc2c2nc3ccccc3nc2c2ccccc12`, the T/C (dose: 25.0 mg/kg/injection, schedule: Q01DX005 (ip), vehicle: saline with Tween-80) was 91 % of control; the T/C (dose: 50.0 mg/kg/injection, schedule: Q01DX005 (ip), vehicle: saline with Tween-80) is 97 % of control; the T/C (dose: 100.0 mg/kg/injection, schedule: Q01DX005 (ip), vehicle: saline with Tween-80) was 96 % of control.
With `O=[N+]([O-])c1ccc(-c2cn3nc(-c4ccccc4)c(-c4ccccc4)nc3n2)cc1`, the T/C reads like this: under setting [8], 110 % of control; under setting [9], 98 % of control; under setting [10], 108 % of control and 93 % of control.
Regarding `N#COc1ccc(-c2ccccc2)cc1`, the T/C is 90 % of control under setting [1]; 87 % of control under setting [2]; 86 % of control and 90 % of control under setting [3].
Consider `C=CCC1(O)CC2NC(C1)[C@@H]1OC(C)(C)O[C@H]21` (stereo not given in full), for which the T/C by setting is: under setting [10], 92 % of control; under setting [11], 87 % of control; under setting [12], 94 % of control.
As for `Cc1cn(CCCCCCOc2c3occc3cc3ccc(=O)oc23)c(=O)[nH]c1=O`, the T/C runs as follows: under setting [10], 92 % of control; (dose: 50.0 mg/kg/injection, schedule: Q04DX002 (ip), vehicle: Klucel (hydroxypropylcellulose) (HPC)) 98 % of control; (dose: 100.0 mg/kg/injection, schedule: Q04DX002 (ip), vehicle: Klucel (hydroxypropylcellulose) (HPC)) 104 % of control; under setting [12], 88 % of control; (dose: 200.0 mg/kg/injection, schedule: Q04DX002 (ip), vehicle: Klucel (hydroxypropylcellulose) (HPC)) 96 % of control.
Take `CCOC(=O)C12C(C(=O)OC)=CC(=O)NC1(OCC)OC(C)C2C` (stereo not given): the T/C is, setting by setting: (dose: 50.0 mg/kg/injection, schedule: Q01DX001 (ip), vehicle: Klucel (hydroxypropylcellulose) (HPC)) 94 % of control; (dose: 100.0 mg/kg/injection, schedule: Q01DX001 (ip), vehicle: Klucel (hydroxypropylcellulose) (HPC)) 89 % of control; (dose: 200.0 mg/kg/injection, schedule: Q01DX001 (ip), vehicle: Klucel (hydroxypropylcellulose) (HPC)) 89 % of control.
For the compound `CC(=O)OCCCn1nc(COC(N)=O)c2c1CC(C)CC2=O` (stereo not given), the T/C is 101 % of control under setting [13]; 99 % of control (dose: 120.0 mg/kg/injection, schedule: Q01DX005 (ip), vehicle: Klucel (hydroxypropylcellulose) (HPC)); 100 % of control (dose: 240.0 mg/kg/injection, schedule: Q01DX005 (ip), vehicle: Klucel (hydroxypropylcellulose) (HPC)).
In the case of `Cc1ccsc1S(N)(=O)=O`, the T/C reads like this: under setting [8], 95 % of control; under setting [9], 98 % of control; under setting [10], 106 % of control and 107 % of control; under setting [11], 113 % of control; under setting [12], 113 % of control.
Consider `NC1=NS(=O)(=O)N=C(N)C1=NNc1ccc([N+](=O)[O-])cc1`, for which the T/C by setting is: under setting [7], 108 % of control; (dose: 200.0 mg/kg/injection, schedule: Q01DX001 (ip), vehicle: saline with Tween-80) 92 % of control; (dose: 400.0 mg/kg/injection, schedule: Q01DX001 (ip), vehicle: saline with Tween-80) 96 % of control.
For `O=C(Nc1cc(Cl)ccc1Cl)Nc1ccc(Cl)cc1C(=O)c1ccccc1`, the T/C is, setting by setting: under setting [14], 89 % of control; under setting [15], 90 % of control; under setting [3], 90 % of control.
For `CCOC(=O)c1ccc(NC(=O)Nc2cccc(NC(C)=O)c2)cc1`, the T/C runs as follows: (dose: 15.0 mg/kg/injection, schedule: Q01DX005 (ip), vehicle: Klucel (hydroxypropylcellulose) (HPC)) 92 % of control; (dose: 30.0 mg/kg/injection, schedule: Q01DX005 (ip), vehicle: Klucel (hydroxypropylcellulose) (HPC)) 91 % of control; under setting [13], 89 % of control.
On to `COc1cc2c(c(OC)c1OC)-c1ccc(SC)c(=O)cc1C(NC(=O)COP(=O)(O)OCC(=O)NC1CCc3cc(OC)c(OC)c(OC)c3-c3ccc(SC)c(=O)cc31)CC2` (stereo not given), for which the T/C was 121 % of control (dose: 0.78 mg/kg/injection, schedule: Q01DX009 (ip), vehicle: water); 114 % of control (dose: 1.56 mg/kg/injection, schedule: Q01DX009 (ip), vehicle: water); 150 % of control (dose: 6.25 mg/kg/injection, schedule: Q01DX009 (ip), vehicle: water).
Take `CN(C)c1ccc(C2c3c(oc4ccccc4c3=O)Oc3oc4ccccc4c(=O)c32)cc1`: the T/C is 98 % of control under setting [14], 100 % of control under setting [15] and 89 % of control under setting [1].
For `O=S1(=O)Oc2c(Cl)cc(Cl)cc2S(=O)(=O)Oc2c(Cl)cc(Cl)cc21`, the T/C under setting [1] is 93 % of control, the T/C under setting [2] was 94 % of control and the T/C under setting [3] is 86 % of control.
As to `Nc1nc(C2CCCCC2)c(Br)c(=O)[nH]1`, the T/C under setting [10] was 97 % of control, the T/C under setting [11] was 92 % of control and the T/C under setting [12] was 92 % of control.
